According to patent publication US11779597B2, “Method of treating Parkinson's and other neurodegenerative diseases” (Vector Vitale IP LLC, priority 2019, dated 2023):
Marks after values point to notes of the source that are not given here.

Legend:
[1] = system: circulating monocytes and granulocytes; assay: Functional and phenotypic properties of circulating phagocytes in LPS rat models; format: in vivo; conditions: animal models of PD
Experimental: (§1) On the 1st day of the experiment, rats were either operated to model hemi-parkinsonism or sham operated. From the 9th to the 18th day of the experiment, the animals were injected either deuterium-depleted water or the test substance, according to their allocation into groups, for 10 days. On the 8th day of the experiment (before initiation of treatment—apomorphine test I) and on the 21st day of the experiment (after the end of administering the test substance —apomorphine test II) the animals underwent an apomorphine test to analyze the development of hemi-parkinsonism which correlates with the number of destroyed dopaminergic neurons. In addition, a follow-up analysis of fecal water content was carried out, i.e., before the start of treatment on the 8th day after the operation, as well as on the 21st (after the end of treatment) and the 28th day (before autopsy). On the 24th day of the experiment, behavioral tests were carried out in all groups. All animals were weighed before autopsy. […]
To assess the anti-inflammatory and immunomodulating effects of the test substance, microglia and peritoneal macrophages were isolated. Phenotypic and functional features of peripheral blood phagocytes were evaluated without their fractioning (using whole blood). […]
Phagocytic activity of microglia, peritoneal macrophages and peripheral blood phagocytes was analyzed on a flow cytometer using FITC-labeled S. aureus Wood 46 cells as an object of phagocytosis. […]
Oxidative metabolism of phagocytes of various localization was analyzed by flow cytometry using the cell-permeant 2′7′-dichlorodihydrofluorescein-diacetate (DHP) (carboxy-H2DCFDA, Invitrogen, USA) which is converted by intracellular esterases to the nonfluorescent membrane-impermeable carboxy-H2DCF form.
The phenotypic profile of phagocytes of various localization was characterized by the expression of markers of functional maturity and metabolic polarization (CD206, CD80 and CD86), which was determined by flow cytometry and the use of monoclonal antibodies of appropriate specificity marked with fluorescent dyes (Abcam, Becton Dickinson).

Water content of feces = format: in vivo; conditions: LPS rat models; administration during 10 days
Experimental: Feces were collected on the 8th, 21st and 28th days of the experiment. They were weighed (wet weight mww) and dried in a thermostat at t=60° C. for 24 hours and then weighed again (dry weight mdw). The water content of feces (M) was calculated as the percentage difference between wet and dry weight of feces according to the following formula: M=100−(mdw×100%/mww).
as §1

[2] = system: circulating phagocytes (monocytes and neutrophils); assay: Hemogram and functional profile of circulating phagocytes in 6-OHDA rat models after prophylactic administration; format: in vivo; conditions: prophylactic i.p.
Experimental: Methods: Adult mature rodents were used in the study. […] Before prophylactic administration of the experimental drugs, the animals underwent an open field test to assay their general locomotor activity levels and anxiety. The prophylactic course consisted of 10 daily intraperitoneal injections of the drugs (in the case of combination drug, its components were administered at an interval of 2 hours). After the end of prophylactic course, Parkinson's disease was modelled in the animals. […] Ten days after the last (second) apomorphine test, the animals' behavioral responses were assessed in the open field test followed by euthanasia and analysis of functional (metabolic and phenotypic) profiles of phagocytes of different localization. Thus, the study of the functional profile of phagocytes in rat models of Parkinson's disease was performed on day 28 after the end of the course of prophylactic treatment with the experimental drugs. […] Functional characteristics of circulating phagocytes (monocytes and neutrophils) were evaluated in whole blood taken into a tube containing EDTA used as an anticoagulant. Mononuclear and polymorphonuclear phagocytes were analyzed on a flow cytofluorimeter using a gating method. […] The hemogram parameters were analyzed on the hematological analyzer Particle counter model PCE 210 (ERMA, Japan) adapted for the study of blood cells of rats and mice.

[3] = Body weight in LPS rat models of parkinsonism; format: in vivo; conditions: for body weight: in g (unit assumed)
Experimental: On the 1st day of the experiment, rats were either operated to model hemi-parkinsonism or sham operated. From the 9th to the 18th day of the experiment, the animals were injected either deuterium-depleted water or the test substance, according to their allocation into groups, for 10 days. On the 8th day of the experiment (before initiation of treatment—apomorphine test I) and on the 21st day of the experiment (after the end of administering the test substance —apomorphine test II) the animals underwent an apomorphine test to analyze the development of hemi-parkinsonism which correlates with the number of destroyed dopaminergic neurons. In addition, a follow-up analysis of fecal water content was carried out, i.e., before the start of treatment on the 8th day after the operation, as well as on the 21st (after the end of treatment) and the 28th day (before autopsy). On the 24th day of the experiment, behavioral tests were carried out in all groups. All animals were weighed before autopsy. During autopsy, ⅔ of animals from each group were sacrificed by cervical dislocation and brain and blood samples were collected for further biochemical and immunological tests. ⅓ of the animals were used for further immunohistochemical studies of the brain; for this purpose, under anesthesia, a procedure of fast, controlled and uniform fixation of the whole body of the animal was performed using 4% paraformaldehyde perfused through the heart of the rat to obtain the best preservation of the brain architecture for immunohistochemistry. Gage G J, et al., J Vis Exp. 2012 Jul. 30; (65).

[4] = system: human T-lymphocytes (CD3+); assay: Spontaneous and PHA-induced proliferative activity and activation-induced apoptosis of T-lymphocytes; format: cell-based; parameters: activation-induced T-cell apoptosis: dose or concentration left out as unconfirmed
Experimental: Materials and Methods: Peripheral blood mononuclear cells were isolated from a healthy donor by density gradient centrifugation over Histopaque-1077 (Sigma, USA). Phytohemagglutinin (PHA) (Sigma, USA) was used to activate the proliferative activity of T-lymphocytes. The cells were exposed to the action of both preparations for 48 hours. A stimulatory (with the addition of the drugs as single components) and costimulatory (with the addition of the drugs in combination with PHA) effects were assessed. CD3 phenotypic marker was used to selectively measure proliferative activity of T-lymphocytes. The T-cell proliferative activity was assessed by analyzing the DNA status of CD3+ cells using a flow cytometry technique. The results are presented in the form of a proliferative index, calculated by the following formula: […]

^64Zn-enriched zinc aspartate [^64Zne-asp]
expression levels of all three markers (CD206, CD80, CD86) by circulating phagocytes [1]: increase
functional reserve of oxidative metabolism of circulating phagocytes [1]: restore
oxidative metabolism of circulating phagocytes of both populations [1]: sharply reduced
water content of feces (Water content of feces): did not cause any significant changes
oxidative metabolism in circulating neutrophils [2]: absence of any disturbances
phagocytic activity of circulating monocytes [2]: did not differ from that of intact animals
body weight ([3]; 1st day): 193.78 ± 22.21
body weight ([3]; 28th day): 219.8 ± 18.31
body weight changes, % ([3]; between 1st and 28th day): 13* %
body weight of LPS rat models (in words) ([3]; day 28 versus day 1 and versus LPS + deuterium-depleted water, listed as 64Zn-asp): statistically significant increase
activation-induced T-cell apoptosis ([4]; drug used alone): did not have any effect
PHA (mitogen)-induced proliferative activity of T-lymphocytes ([4]; in combination with PHA, 48 hours): stimulatory and costimulatory effects
activation-induced T-cell apoptosis ([4]; in combination with the mitogen): significantly decreased
spontaneous proliferative activity of CD3+ T-lymphocytes ([4]; used separately from PHA, 48 hours): dose-dependent weak stimulatory effect
